# From ChEMBL document CHEMBL1201862, “PubChem BioAssay data set” (2004)
# Calls of active or inactive are those of the source.
# Tests used:
# [1] = target: T1, Short transient receptor potential channel 4 (Mus musculus, UniProt Q9QUQ5); assay: mouse TRPC4 channel activators, dose response, cell-based, HEK293 TRPC4/mu-opioid, Fluo-4 calcium (AID 434937); assay type: functional
# T1 sequence (Q9QUQ5 whole entry): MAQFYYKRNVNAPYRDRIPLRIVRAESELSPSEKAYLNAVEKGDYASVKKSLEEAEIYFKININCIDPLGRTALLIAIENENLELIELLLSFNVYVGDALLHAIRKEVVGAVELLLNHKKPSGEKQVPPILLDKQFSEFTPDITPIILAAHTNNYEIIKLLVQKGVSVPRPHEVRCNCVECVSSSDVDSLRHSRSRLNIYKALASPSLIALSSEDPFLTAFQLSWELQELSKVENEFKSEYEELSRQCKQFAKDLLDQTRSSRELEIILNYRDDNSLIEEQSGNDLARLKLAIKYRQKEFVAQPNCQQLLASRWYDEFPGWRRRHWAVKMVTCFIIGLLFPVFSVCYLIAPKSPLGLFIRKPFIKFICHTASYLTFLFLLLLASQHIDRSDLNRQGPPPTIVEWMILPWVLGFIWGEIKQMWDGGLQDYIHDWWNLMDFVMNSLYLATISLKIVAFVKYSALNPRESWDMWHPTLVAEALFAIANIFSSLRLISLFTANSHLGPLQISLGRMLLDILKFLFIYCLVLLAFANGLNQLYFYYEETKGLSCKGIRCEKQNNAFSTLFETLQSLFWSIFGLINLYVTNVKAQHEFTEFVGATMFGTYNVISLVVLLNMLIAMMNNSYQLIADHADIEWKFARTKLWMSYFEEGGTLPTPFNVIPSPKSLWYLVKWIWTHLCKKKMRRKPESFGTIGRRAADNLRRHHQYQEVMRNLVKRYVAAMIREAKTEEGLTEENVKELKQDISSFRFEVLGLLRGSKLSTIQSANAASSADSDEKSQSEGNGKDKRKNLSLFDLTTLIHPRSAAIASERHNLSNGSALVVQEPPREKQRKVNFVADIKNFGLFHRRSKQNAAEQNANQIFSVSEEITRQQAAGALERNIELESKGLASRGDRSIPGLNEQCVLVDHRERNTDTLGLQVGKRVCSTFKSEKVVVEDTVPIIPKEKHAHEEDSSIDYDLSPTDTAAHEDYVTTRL
# [2] = target: T2, Heat shock factor protein 1 (Mus musculus, UniProt P38532); assay: inhibition of MG132-induced HSE-luciferase signal, confirmation, cell-based, NIH3T3, luminescence, dose retest (AID 2382); assay type: functional;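 also: NIH3T3 fibroblasts with HSF1-driven luciferase reporter stressed by proteasome inhibitor MG132; luminescence from HSF1-driven luciferase expression after 8 hours of MG132 stress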
# T2 sequence (P38532 whole entry): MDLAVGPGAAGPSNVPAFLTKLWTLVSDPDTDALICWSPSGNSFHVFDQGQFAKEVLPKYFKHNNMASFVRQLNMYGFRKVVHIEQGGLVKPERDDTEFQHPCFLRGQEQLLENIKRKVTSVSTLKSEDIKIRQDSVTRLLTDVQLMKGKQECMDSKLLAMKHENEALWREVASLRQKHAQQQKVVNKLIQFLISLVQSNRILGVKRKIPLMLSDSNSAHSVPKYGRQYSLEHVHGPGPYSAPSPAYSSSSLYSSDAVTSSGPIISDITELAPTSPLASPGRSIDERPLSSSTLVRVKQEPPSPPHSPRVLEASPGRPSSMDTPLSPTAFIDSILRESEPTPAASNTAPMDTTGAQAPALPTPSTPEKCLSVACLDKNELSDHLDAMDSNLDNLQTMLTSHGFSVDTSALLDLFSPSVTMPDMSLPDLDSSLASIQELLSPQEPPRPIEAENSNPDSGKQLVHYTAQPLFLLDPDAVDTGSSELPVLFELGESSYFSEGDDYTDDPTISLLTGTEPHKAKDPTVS
# [3] = target: Prothrombin (Homo sapiens, UniProt P00734); assay: Thrombin 1536 HTS Dose Response Confirmation. [Related pubchem assays: 1046 (Thrombin 1536 HTS; hits were confirmed in this assay)]; assay type: functional
# [4] = target: Cytochrome P450 2C9 (Homo sapiens, UniProt P11712)
# [5] = target: Cytochrome P450 3A4 (Homo sapiens, UniProt P08684);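 also: CYP3A4 tested as one member of a cytochrome P450 panel screen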
# [6] = target: Cytochrome P450 2C19 (Homo sapiens, UniProt P33261); assay: Cytochrome panel assay with activity outcomes. Panel member name: p450-cyp2c19 Compounds with AC50 equal or less than 10 uM are considered active; assay type: functional; conditions: read-out: AC50
# [7] = target: T3, Cytochrome P450 1A2 (Homo sapiens, UniProt P05177);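 also: PubChem cytochrome P450 panel assay, CYP1A2 panel member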
# T3 sequence (P05177 whole entry): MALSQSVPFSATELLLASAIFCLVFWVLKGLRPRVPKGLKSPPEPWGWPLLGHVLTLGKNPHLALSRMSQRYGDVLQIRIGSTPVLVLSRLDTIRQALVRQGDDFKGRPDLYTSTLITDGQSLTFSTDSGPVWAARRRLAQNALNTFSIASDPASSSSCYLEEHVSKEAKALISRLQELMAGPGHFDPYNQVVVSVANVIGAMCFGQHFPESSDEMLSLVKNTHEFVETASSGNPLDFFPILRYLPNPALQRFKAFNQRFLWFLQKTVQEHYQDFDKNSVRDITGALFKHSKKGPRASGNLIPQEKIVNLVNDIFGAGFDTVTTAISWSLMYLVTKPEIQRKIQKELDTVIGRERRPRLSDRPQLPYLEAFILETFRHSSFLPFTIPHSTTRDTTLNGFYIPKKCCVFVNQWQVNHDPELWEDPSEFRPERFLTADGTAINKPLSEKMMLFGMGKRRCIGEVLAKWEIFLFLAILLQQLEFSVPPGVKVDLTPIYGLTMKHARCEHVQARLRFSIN
# [8] = target: T4, Aminopeptidase N (Plasmodium falciparum FcB1/Columbia, UniProt O96935); assay: P. falciparum M1AAP inhibitors, biochemical, fluorogenic H-Leu-NHMec substrate, 1536-well (AID 1445); design: species or system Plasmodium falciparum 3D7, 3D7
# T4 sequence (O96935 whole entry): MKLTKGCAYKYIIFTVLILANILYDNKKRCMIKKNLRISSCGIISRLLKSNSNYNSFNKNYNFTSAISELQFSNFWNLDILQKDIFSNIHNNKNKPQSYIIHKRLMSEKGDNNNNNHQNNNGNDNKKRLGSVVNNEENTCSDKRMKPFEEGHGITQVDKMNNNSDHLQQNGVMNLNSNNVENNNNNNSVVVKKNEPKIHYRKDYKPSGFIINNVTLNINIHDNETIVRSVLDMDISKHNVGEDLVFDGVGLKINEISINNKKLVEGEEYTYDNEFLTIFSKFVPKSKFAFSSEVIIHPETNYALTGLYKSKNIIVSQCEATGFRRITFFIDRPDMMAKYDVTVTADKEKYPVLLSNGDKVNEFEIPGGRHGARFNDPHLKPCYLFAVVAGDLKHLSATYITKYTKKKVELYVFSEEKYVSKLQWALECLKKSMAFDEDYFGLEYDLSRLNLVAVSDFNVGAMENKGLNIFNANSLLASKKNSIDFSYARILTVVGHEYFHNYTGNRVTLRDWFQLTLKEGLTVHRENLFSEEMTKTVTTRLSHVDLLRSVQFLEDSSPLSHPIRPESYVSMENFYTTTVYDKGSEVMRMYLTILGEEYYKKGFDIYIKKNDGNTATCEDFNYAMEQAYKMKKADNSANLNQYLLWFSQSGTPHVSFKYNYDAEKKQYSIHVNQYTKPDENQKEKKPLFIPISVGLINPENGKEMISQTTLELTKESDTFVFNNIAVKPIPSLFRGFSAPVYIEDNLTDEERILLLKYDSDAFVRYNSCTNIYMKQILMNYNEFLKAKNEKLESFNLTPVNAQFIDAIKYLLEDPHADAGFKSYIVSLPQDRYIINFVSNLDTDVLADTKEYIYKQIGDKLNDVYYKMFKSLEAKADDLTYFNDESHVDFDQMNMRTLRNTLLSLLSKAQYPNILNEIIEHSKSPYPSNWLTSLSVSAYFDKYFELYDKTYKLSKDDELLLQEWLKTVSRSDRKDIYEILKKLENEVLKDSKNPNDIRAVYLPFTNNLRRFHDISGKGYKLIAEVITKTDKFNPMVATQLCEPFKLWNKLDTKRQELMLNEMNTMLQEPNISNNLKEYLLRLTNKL
# [9] = THP-1 cell cytotoxicity, dose response, cytotoxicity control for non-replicating M. tuberculosis project (AID 489025); assay type: functional
# [10] = cells; assay type: functional
# [11] = test system: Vero; assay: cells; assay type: functional; conditions: Chlorocebus sabaeus
# [12] = NIH-3T3 fibroblast cytotoxicity, dose response, cytotoxicity control, cell-based, fluorescence, Alamar Blue, secondary assay (AID 2327); assay type: functional;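 also: NIH-3T3 mouse fibroblasts cultured with fluconazole at 8 µg/mL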
# [13] = C. albicans growth with fluconazole, confirmation, fluorescence, retest (AID 2467); assay type: functional, cell-based
# [14] = microbe, parasite or virus in culture; assay type: functional; conditions: Mycobacterium tuberculosis
# [15] = target: Heat shock protein HSP 90-alpha (Homo sapiens, UniProt P07900); assay type: functional, organism-based
# [16] = Shn3 3'UTR reporter inhibitors, dose response, cell-based, Clone20 osteoblasts, firefly luciferase, cherry-picked (AID 624132); assay type: functional;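 also: firefly luciferase luminescence from reporter carrying the Shn3 3'UTR in osteoblasts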
# [17] = HepG2 cell cytotoxicity, dose response, cytotoxicity control for Shn3 inhibitor project, CellTiter-Glo, cherry-picked (AID 624134); assay type: functional, cell-based
# [18] = control 3'UTR Renilla luciferase suppression, dose response, counter-screen for Shn3 inhibitor project, cell-based, Clone20-Shn3RL, cherry-picked (AID 624133); assay type: functional
# [19] = target: T5, Rac GTPase-activating protein 1 (Homo sapiens, UniProt Q9H0H5); assay: MgcRacGAP GTPase-activating activity inhibitors, confirmation, biochemical, ADP Hunter fluorescence, primary and confirmatory (AID 624330); assay type: functional
# T5 sequence (Q9H0H5 whole entry): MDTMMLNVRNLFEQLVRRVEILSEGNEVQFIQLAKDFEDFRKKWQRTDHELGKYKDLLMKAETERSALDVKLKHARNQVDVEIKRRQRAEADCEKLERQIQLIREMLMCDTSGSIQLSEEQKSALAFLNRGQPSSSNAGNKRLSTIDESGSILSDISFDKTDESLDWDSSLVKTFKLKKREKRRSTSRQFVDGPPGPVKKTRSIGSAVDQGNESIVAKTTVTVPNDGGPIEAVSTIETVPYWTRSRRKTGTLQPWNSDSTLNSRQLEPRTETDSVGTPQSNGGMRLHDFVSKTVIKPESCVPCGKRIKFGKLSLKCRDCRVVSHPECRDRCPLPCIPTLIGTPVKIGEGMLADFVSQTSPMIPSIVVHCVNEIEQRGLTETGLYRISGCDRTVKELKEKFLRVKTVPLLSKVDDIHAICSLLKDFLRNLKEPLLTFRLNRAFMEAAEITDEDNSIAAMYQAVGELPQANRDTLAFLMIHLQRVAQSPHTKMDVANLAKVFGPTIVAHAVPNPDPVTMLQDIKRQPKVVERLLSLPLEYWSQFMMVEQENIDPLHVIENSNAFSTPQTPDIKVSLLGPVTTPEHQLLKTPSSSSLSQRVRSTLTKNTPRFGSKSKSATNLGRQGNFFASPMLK
# [20] = target: Cytochrome P450 2D6 (Homo sapiens, UniProt P10635)
# Cytochrome P450 2D6, sequence (P10635 whole entry): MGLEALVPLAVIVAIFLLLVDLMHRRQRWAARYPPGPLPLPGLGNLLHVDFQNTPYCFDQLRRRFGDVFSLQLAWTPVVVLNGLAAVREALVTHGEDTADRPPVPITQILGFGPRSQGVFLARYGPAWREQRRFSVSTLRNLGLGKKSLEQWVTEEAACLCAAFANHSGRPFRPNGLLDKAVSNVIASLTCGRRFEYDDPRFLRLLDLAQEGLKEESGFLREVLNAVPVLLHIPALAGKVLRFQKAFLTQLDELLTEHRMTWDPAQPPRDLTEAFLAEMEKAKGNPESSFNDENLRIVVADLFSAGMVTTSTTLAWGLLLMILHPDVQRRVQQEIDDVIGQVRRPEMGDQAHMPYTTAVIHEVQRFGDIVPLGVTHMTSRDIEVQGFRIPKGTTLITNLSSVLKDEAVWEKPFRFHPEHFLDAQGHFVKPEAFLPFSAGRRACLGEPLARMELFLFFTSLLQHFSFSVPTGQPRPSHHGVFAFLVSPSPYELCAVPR
# Cytochrome P450 3A4, sequence (P08684 whole entry): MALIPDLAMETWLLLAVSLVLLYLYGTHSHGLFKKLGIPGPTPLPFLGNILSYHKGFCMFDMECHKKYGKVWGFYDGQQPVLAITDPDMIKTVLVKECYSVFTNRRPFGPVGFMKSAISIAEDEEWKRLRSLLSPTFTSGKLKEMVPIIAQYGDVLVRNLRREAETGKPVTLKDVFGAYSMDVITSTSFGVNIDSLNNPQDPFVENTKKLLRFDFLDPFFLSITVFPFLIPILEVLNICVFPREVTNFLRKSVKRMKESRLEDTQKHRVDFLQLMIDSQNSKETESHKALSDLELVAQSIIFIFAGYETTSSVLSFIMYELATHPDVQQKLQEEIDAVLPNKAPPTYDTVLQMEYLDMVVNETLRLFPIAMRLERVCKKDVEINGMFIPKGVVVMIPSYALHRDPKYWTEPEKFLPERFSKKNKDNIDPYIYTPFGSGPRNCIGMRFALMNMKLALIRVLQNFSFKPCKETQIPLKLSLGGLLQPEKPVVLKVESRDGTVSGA
# Cytochrome P450 2C9, sequence (P11712 whole entry): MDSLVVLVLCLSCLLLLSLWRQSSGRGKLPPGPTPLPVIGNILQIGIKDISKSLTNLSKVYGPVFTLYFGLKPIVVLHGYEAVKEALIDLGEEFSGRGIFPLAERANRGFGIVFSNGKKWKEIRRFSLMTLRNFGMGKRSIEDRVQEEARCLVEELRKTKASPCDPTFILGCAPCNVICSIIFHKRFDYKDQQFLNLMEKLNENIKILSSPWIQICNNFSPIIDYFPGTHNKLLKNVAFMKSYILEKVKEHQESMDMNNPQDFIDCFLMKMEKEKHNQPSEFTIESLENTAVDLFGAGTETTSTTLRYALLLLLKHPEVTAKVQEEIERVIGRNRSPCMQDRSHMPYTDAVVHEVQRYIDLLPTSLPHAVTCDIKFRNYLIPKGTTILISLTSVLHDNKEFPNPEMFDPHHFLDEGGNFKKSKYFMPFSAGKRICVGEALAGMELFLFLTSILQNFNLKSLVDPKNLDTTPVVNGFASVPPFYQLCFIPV
# Cytochrome P450 2C19, sequence (P33261 whole entry): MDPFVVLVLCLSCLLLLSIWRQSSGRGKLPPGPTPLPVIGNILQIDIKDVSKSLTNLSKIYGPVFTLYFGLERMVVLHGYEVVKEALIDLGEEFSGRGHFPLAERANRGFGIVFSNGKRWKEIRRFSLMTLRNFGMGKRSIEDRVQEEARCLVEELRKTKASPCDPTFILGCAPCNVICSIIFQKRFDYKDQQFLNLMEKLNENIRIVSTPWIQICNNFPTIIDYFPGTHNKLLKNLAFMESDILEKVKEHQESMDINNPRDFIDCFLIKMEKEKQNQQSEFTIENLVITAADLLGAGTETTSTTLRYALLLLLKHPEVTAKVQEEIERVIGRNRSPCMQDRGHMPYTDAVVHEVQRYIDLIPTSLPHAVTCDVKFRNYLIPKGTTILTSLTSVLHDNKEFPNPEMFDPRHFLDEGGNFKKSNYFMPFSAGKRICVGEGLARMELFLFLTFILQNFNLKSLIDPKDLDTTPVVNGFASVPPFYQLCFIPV
smiles,measurement,setting,value
CCN1CCN(c2c(Cl)cccc2NC(=O)c2ccc3nsnc3c2)CC1,EC50,[1],0.668 µM (active)
CCN(CC)S(=O)(=O)c1ccc2c(c1)c(=O)c(C(=O)NCc1ccco1)cn2C,EC50,[2],> 195 µM (not active)
same,IC50,[3],2.14 µM (active)
O=C(O)/C(=C\c1ccccc1)Cc1ccccc1,AC50,[4],3.98 µM (inconclusive)
same,AC50,[5],inconclusive
COC(=O)N1CCC2(CC1)CCN(c1ccccc1)CC2,AC50,[6],5.01 µM (inconclusive)
same,AC50,[5],inconclusive
Cn1cccc1C(=O)N1CCC2(CC1)CN(C(c1ccccc1)c1ccccc1)C2,AC50,[7],31.6 µM (inconclusive)
same,AC50,[4],39.8 µM (inconclusive)
same,AC50,[5],inconclusive
CN(C)CCNc1nc(S(=O)(=O)c2ccccc2)c(Cl)s1,IC50,[8],51.9 µM (active)
Cc1ccc(OCC(=O)N2CCN(C(=O)CCC3CCCC3)CC2)cc1,IC50,[8],57.3 µM (active)
Clc1ccc(OCCCNCc2ccccc2)c2ccccc12,CC50,[9],23.6 µM (active)
same,IC50,[10],12.2 µM (active)
same,CC50,[11],> 25 µM (active)
CC(C)(C)C(=O)NC(=S)NNC(=O)c1sc2ccccc2c1Cl,EC50,[12],2.54 µM (inconclusive)
same,EC50,[2],3.06 µM (active)
same,EC50,[13],1.35 µM (active)
same,CC50,[14],6.74 µM (active)
same,EC50,[1],0.267 µM (active)
same,AC50,[15],3.26 µM (active)
same,AC50,[16],19.1 µM (active)
same,AC50,[17],12.1 µM (active)
same,AC50,[18],1.54 µM (active)
COCC(=O)N1CCC2(CC1)CCN(C(c1ccccc1)c1ccccc1)CC2,AC50,[5],inconclusive
COC(=O)c1ccc(N2CCN(C)CC2)c(NC(=O)c2cccs2)c1,EC50,[1],2.11 µM (active)
Clc1ccc(Cl)c(OCCCCNCc2ccccc2)c1,CC50,[9],38.1 µM (active)
same,IC50,[10],36.9 µM (active)
Oc1ccc(Cl)cc1/N=C/c1c[nH]nc1O,IC50,[8],14.3 µM (active)
same,IC50,[19],30 µM (active)
O=C(Oc1ccccc1)N1CCC2(CC1)CN(c1ccccn1)C2,AC50,[5],inconclusive
O=C(c1ccco1)N1CCC2(CC1)CN(c1ccccn1)C2,AC50,[20],15.8 µM (inconclusive)
same,AC50,[5],inconclusive
Cc1ccc(/C=C2\SC(=S)N(C3CCS(=O)(=O)C3)C2=O)o1 (centres undefined),CC50,[9],> 40 µM (active)
